Measured values reported in patent US6914045B2, “Glycopeptide antibiotics” (Wyeth Holdings Corporation, priority 2001, dated 2005).
In brackets after ≈: the same amount, converted by molar mass. Numbered stars: 1 amine (or outer) side, 2 acyl side, 3 side chain; on linkers, the order of the positions; unused ones are H or OH. Square brackets hold non-standard residues; d marks the D form. Peptide text beside a SMILES is read from it. ξ: configuration not given here. X1 = N=C1NCC(C(O)C(N[*:1])C(=O)[*:2])N1C1OC(CO)C(O)C(O)C1O; ξEnduracididine(βξ-OH,4'ξ) = N=C1NCC(C(O)C(N)C(=O)O)N1; ξCha(3ξ-Me) = CC(C1CCCCC1)C(N)C(=O)O; Cha = N[CH](CC1CCCCC1)C(=O)O

Legend:
Assay in all cases: in vitro antibacterial evaluation, MIC by broth dilution
Format in all cases: cell-based
Conditions in all cases: broth dilution, 18 hours at 35° C.
Escherichia coli = system: Escherichia coli
How it was run: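 Broth dilution MIC per NCCLS M7-A2 in Mueller-Hinton II medium, inoculum 5×10^5 CFU/mL, antibiotic range 64-0.06 μg/mL. MIC taken as lowest concentration inhibiting growth.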

Staphylococcus sp. = system: Staphylococcus sp.
How it was run: (§1)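 Broth dilution per NCCLS M7-A2 in Mueller-Hinton II medium, inoculum 5×10^5 CFU/mL, antibiotic range 64-0.06 μg/mL. MIC taken as lowest concentration inhibiting growth; Gram-positive panel includes recent clinical isolates resistant to methicillin, penicillin and/or vancomycin.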

Enterococcus sp. = system: Enterococcus sp.
How it was run: as §1

Streptococcus sp. = system: Streptococcus sp.
How it was run: as §1

- MIC Escherichia coli (ATCC 25922) (Escherichia coli; strain ATCC 25922): 128 µg/mL (≈ 132 µM)
- MIC Escherichia coli (GC 4559) (Escherichia coli; strain GC 4559): 128 µg/mL (≈ 132 µM)
- MIC Escherichia coli (GC 4560) (Escherichia coli; strain GC 4560): 4 µg/mL (≈ 4.14 µM)
- MIC Staphylococcus aureus (ATCC 29213) (Staphylococcus sp.; strain ATCC 29213): 2 µg/mL (≈ 2.07 µM)
- MIC Staphylococcus aureus (GC 1131) (Staphylococcus sp.; strain GC 1131): 4 µg/mL (≈ 4.14 µM)
- MIC Staphylococcus aureus (GC 3051) (Staphylococcus sp.; strain GC 3051): 2 µg/mL (≈ 2.07 µM)
- MIC Staphylococcus aureus (GC 3053) (Staphylococcus sp.; strain GC 3053): 4 µg/mL (≈ 4.14 µM)
- MIC Staphylococcus aureus (GC 4541) (Staphylococcus sp.; strain GC 4541): 4 µg/mL (≈ 4.14 µM)
- MIC Staphylococcus aureus (GC 4542) (Staphylococcus sp.; strain GC 4542): 2 µg/mL (≈ 2.07 µM)
- MIC Staphylococcus aureus-SMITH (GC 4543) (Staphylococcus sp.; strain GC 4543): 2 µg/mL (≈ 2.07 µM)
- MIC Staphylococcus aureus (GC 4544) (Staphylococcus sp.; strain GC 4544): 4 µg/mL (≈ 4.14 µM)
- MIC Staphylococcus aureus (GC 4545) (Staphylococcus sp.; strain GC 4545): 2 µg/mL (≈ 2.07 µM)
- MIC Coagulase Negative Staphylococcus (GC 4547) (Staphylococcus sp.; strain GC 4547): 2 µg/mL (≈ 2.07 µM)
- MIC Coagulase Negative Staphylococcus (GC 4548) (Staphylococcus sp.; strain GC 4548): 2 µg/mL (≈ 2.07 µM)
- MIC Coagulase Negative Staphylococcus (GC 4549) (Staphylococcus sp.; strain GC 4549): 1 µg/mL (≈ 1.03 µM)
- MIC Coagulase Negative Staphylococcus (GC 4551) (Staphylococcus sp.; strain GC 4551): 2 µg/mL (≈ 2.07 µM)
- MIC Enterococcus avium (GC 4558) (Enterococcus sp.; Enterococcus avium (GC 4558)): 4 µg/mL (≈ 4.14 µM)
- MIC Enterococcus faecalis (ATCC 29212) (Enterococcus sp.; Enterococcus faecalis (ATCC 29212)): 8 µg/mL (≈ 8.27 µM)
- MIC Enterococcus faecalis (GC 4552) (Enterococcus sp.; Enterococcus faecalis (GC 4552)): 8 µg/mL (≈ 8.27 µM)
- MIC Enterococcus faecalis (GC 4553) (Enterococcus sp.; Enterococcus faecalis (GC 4553)): 4 µg/mL (≈ 4.14 µM)
- MIC Enterococcus faecalis (GC 4554) (Enterococcus sp.; Enterococcus faecalis (GC 4554)): 16 µg/mL (≈ 16.5 µM)
- MIC Enterococcus faecalis (GC 6189) (Enterococcus sp.; Enterococcus faecalis (GC 6189)): 4 µg/mL (≈ 4.14 µM)
- MIC Enterococcus faecium (GC 2243) (Enterococcus sp.; Enterococcus faecium (GC 2243)): 2 µg/mL (≈ 2.07 µM)
- MIC Enterococcus faecium (GC 4556) (Enterococcus sp.; Enterococcus faecium (GC 4556)): 8 µg/mL (≈ 8.27 µM)
- MIC Enterococcus faecium (GC 4557) (Enterococcus sp.; Enterococcus faecium (GC 4557)): 2 µg/mL (≈ 2.07 µM)
- MIC Enterococcus faecalis (ATCC 29212) (Enterococcus sp.; strain ATCC 29212): 8 µg/mL (≈ 8.27 µM)
- MIC Enterococcus faecalis (GC 2242) (Enterococcus sp.; strain GC 2242): 8 µg/mL (≈ 8.27 µM)
- MIC Enterococcus faecium (GC 2243) (Enterococcus sp.; strain GC 2243): 2 µg/mL (≈ 2.07 µM)
- MIC Enterococcus faecalis (GC 2691) (Enterococcus sp.; strain GC 2691): 8 µg/mL (≈ 8.27 µM)
- MIC Enterococcus faecalis (GC 3059) (Enterococcus sp.; strain GC 3059): 8 µg/mL (≈ 8.27 µM)
- MIC Enterococcus faecalis (GC 4552) (Enterococcus sp.; strain GC 4552): 8 µg/mL (≈ 8.27 µM)
- MIC Enterococcus faecalis (GC 4553) (Enterococcus sp.; strain GC 4553): 4 µg/mL (≈ 4.14 µM)
- MIC Enterococcus faecalis (GC 4554) (Enterococcus sp.; strain GC 4554): 16 µg/mL (≈ 16.5 µM)
- MIC Enterococcus faecium (GC 4556) (Enterococcus sp.; strain GC 4556): 8 µg/mL (≈ 8.27 µM)
- MIC Enterococcus faecium (GC 4557) (Enterococcus sp.; strain GC 4557): 2 µg/mL (≈ 2.07 µM)
- MIC Enterococcus avium (GC 4558) (Enterococcus sp.; strain GC 4558): 4 µg/mL (≈ 4.14 µM)
- MIC Enterococcus faecalis (GC 6189) (Enterococcus sp.; strain GC 6189): 4 µg/mL (≈ 4.14 µM)
- MIC Streptococcus pneumoniae (ATCC 6301) (Streptococcus sp.; strain ATCC 6301): 1 µg/mL (≈ 1.03 µM)
- MIC Streptococcus pneumoniae (GC 1894) (Streptococcus sp.; strain GC 1894): 1 µg/mL (≈ 1.03 µM)
- MIC Streptococcus pyogenes (GC 4563) (Streptococcus sp.; strain GC 4563): 1 µg/mL (≈ 1.03 µM)
- MIC Streptococcus agalactiae (GC 4564) (Streptococcus sp.; strain GC 4564): 1 µg/mL (≈ 1.03 µM)
- MIC Streptococcus pneumoniae (GC 4565) (Streptococcus sp.; strain GC 4565): 4 µg/mL (≈ 4.14 µM)
SMILES: CC(C1CCCCC1)C1NC(=O)CNC(=O)C(CO)NC(=O)C(C(O)C2CNC(=N)N2C2OC(CO)C(O)C(O)C2O)NC(=O)C(C(O)C2CNC(=N)N2)NC(=O)C(CC2CCCCC2)NC1=O (stereo not drawn) [Example 53, Cyclo[3-cyclohexylalanyl-3-(2-iminoimidazolidin-4-yl)seryl-3-(3-hexopyranosyl-2-iminoimidazolidin-4-yl)serylserylglycyl-3-cyclohexyl-2-aminobutanyl]] (cyclo(G[ξCha(3ξ-Me)][Cha][ξEnduracididine(βξ-OH,4'ξ)][X1]S); configuration not given here)
- MIC Staphylococcus haemolyticus (GC 4546) (Staphylococcus sp.; strain GC 4546): 1 µg/mL (≈ 1.03 µM)
